The values below come from patent publication US5147652A, “Autobiotics and their use in eliminating nonself cells in vivo” (priority 1990, dated 1992).

The format of data set [1] is physicochemical.
The test system of data set [2] is Candida albicans. Nature of the data set: Effect on proliferation of Candida albicans, disk on agar surface (A). In kind it is cell-based. Here is the method: Stock solutions of the following test compounds were dissolved in physiological saline. However DOV was dissolved in water.
C. albicans isolated from clinical specimens were density grown in SubbaRow's broth at 35 C. A loopful of yeast suspension was evenly spread on the surface of Muller-Hilton agar plates (7cm diameter) with a sterile cotton applicator and incubated for 12 hours. The test compounds were placed on the surface of the sensidisks (Whatmann No. 17 paper, 6mm diameter) in a volume of 5, 10, 20, and 50 μliter of stock solutions and made up a final volume of 50 μliter with saline. The plates then were placed and kept at 37 C for 24 hours (*) and 48 hours (**) when the diameters of the inhibitory rings were recorded. Photographs were also taken of plates.

Data set [3] relates to blood coagulation (citrated human blood plasma). The data set is described as follows: Blood coagulation (i), ketoaldehyde kept 1-2 seconds before plasma added. As to conditions: for d % (clotting activity) / coagulation time / clot: 1-2 seconds contact; for d % (clotting activity): control 22; for coagulation time: control 24; for clot: control hard. It counts as biochemical. The procedure:
(§1) 200 microliter thromboplastin (Ortho) was mixed with 10 microliter ketoaldehyde (KA) stock solution. Then 100 microliter citrated human blood plasma was added and the clot formation time (in seconds) was measured on a Fibrionometer. The effect of the ketoaldehyde on coagulation time was evaluated by comparing the clotting time of the KA treated plasma with the untreated control. The result (d%) was read from a special chart expressing the clotting activity.
(§2) All measurements were run in triplicates. The assay was run at 37 C (waterbath) in special tubes and all solutions were prewarmed.
(i) The plasminogen and ketoaldehyde were kept for
1-2 seconds before the blood plasma was added.

Data set [4] concerns blood coagulation (normal plasma). The data set is described as follows: Blood coagulation (ii)(b), normal plasma. It counts as biochemical, human. Here is the method:
as §1, §2
(§3) (ii) The plasminogen and KA were incubated for
(§4) varying time before the blood plasma was added.
(b) with normal plasma: clotting time = 11. 7 sec

The test system of a further data set is cell division. As to conditions: Stein and co-workers; cited from earlier work.
Data set [5] concerns Candida albicans. As to conditions: cited from earlier work.
Data set [6] is described as follows: in vivo half life of C14-radiolabelled free and latentiated methylglyoxal. As to conditions: free; injected into mice. The procedure:
With free alpha-ketoaldehydes, the half-life is about 30 minutes. […] Latentiation also protects host cells from the toxic effects of alpha-ketoaldehydes.

A further data set concerns Sarcoma-180 cells. Nature of the data set: Radiation enhancement in mice carrying ascitic Sarcoma-180 cells. It counts as in vivo. The text has this: Ten minutes after the injection the mice were irradiated with a gamma source (612 RAD equivalent of 400 R total body radiation; calculated lethaldose:LD-50/30 days). The treatment was repeated 3 times 4 days apart. […] One day after the last radiation, the animals were sacrificed, the ascitic fluid was collected and the malignant cells were counted.

The next data set deals with Aspergillus niger. Nature of the data set: Inhibition of proliferation of molds, disk assay. It counts as cell-based. Also on record: unit not given here. As to conditions: 40 hrs. The procedure:
(§5) (1) Stock solutions in 26% 2 popanediol:
(§6) (3) Assay: The microorganisms were grown in Saburand's dextrose agar (Scott) at 35 C for stock cultures. For assay the spores were plated on Mueller-Hilton agar plates (7cm dia). The test compounds were applied to the plates on sensi disks (6 mm dia, Whatmann #17 paper) in volumes of 10, 20, 30, 40 microliter made up to 40 plating volume of microliter with the solvent. The plates were incubated at room temperature and in the dark for 40 hrs. The diameter of the inhibition ring around the sensi disks were measured.

Data set [7] deals with Penicillum notatum. The data set is described as follows: Inhibition of proliferation of molds, disk assay. In kind it is cell-based. Also noted: unit not given here. As to conditions: 40 hrs. Here is the method: as §5, §6
For a further data set, the system named is C. albicans. Nature of the data set: Inhibition of C. albicans, yeast mixed in agar (B). It counts as cell-based. As to conditions: 30 μl test, 24 hrs incubation; mean of twenty assays. The procedure: Stock cultured C. albicans is used. The yeast isolated from clinical specimens was stock cultured (subcultured) on semisolid trypsoy agar plates. […] Thus, from the subculture(s), transfers were made every 48 hrs into SRB to keep the experimental strain available for assays. From the 24-48 hrs SRB cultures a loopful of turbid solutions was transferred and spread on either (a) trypsoy agar plates or (b) EBM agar plates which were fortified with horse and calf serum and incubated at 36 C for 24-48 hrs. […] Plate (a) was selected for growth inhibition assay(s) with ketoaldehydes.
One milliliter of SRB culture (24-48 hrs growth) was mixed with 10 ml trypsoy agar, warmed to 38 C and rapidly poured into sterile Petri dishes (7cm), spread evenly and allowed to solidify. The selected test compounds (in 30 μl total volume, as above) were placed in sensidisks (6mm dia, Whatman #17) on the infected agar surface. The plates were incubated for 24 hrs at 37 C. The extent of inhibition, clear zones around the sensi disks, were measured and recorded. In some cases contact photorecords were also made with the plates. (The dark zones on the photos are the inhibition (no growth) areas of C. albicans.
These assays were aimed at finding the variations of inhibition due to (i) the variable amount of yeast in (ii) a three dimensional area of the plates. Each result is the statistical mean of twenty assays on different batches of C. albicans.

Data set [8] deals with blood coagulation (plasma from a patient with prothrombin). The data set is described as follows: Blood coagulation (ii)(a), plasma from a patient with prothrombin. It counts as biochemical, human. The procedure: as §1, §2, §3, §4
(a) With plasma from a patient with prothrombin
(clotting time 26 sec d % = 19. "Normal" (healthy)

For data set [9], the system named is blood coagulation (whole blood). Nature of the data set: Blood coagulation (c), trial assay with whole blood. In kind it is biochemical. As to conditions: control 14.9 sec. Here is the method: as §1, §2
(c) A trial assay where blood plasma was replaced

For data set [10], the system named is Penicillum notatum. Nature of the data set: Inhibition of proliferation of molds, disk assay. It counts as cell-based. As to conditions: 8 days.
Where [11] appears, read: 20x diluted, incubation time 30 seconds.

Turning to `O=CC(=O)c1ccccc1` [PhG, phenylglyoxal], the “solubility in organic solvents” value in data set [1] (chloroform, methanol, ethanol) is “soluble in chloroform methanol and ethanol”. Moreover, the “solubility limit of stock solution” value in [1] (physiological saline stock) is “limit solubility”. The solubility in water entry in [1] (water) is recorded as “sparingly soluble in water”. For the same molecule, in the data set on Candida albicans [2] (20 μliter, 24 hours (*)), the inhibition diameters was 5 mm. The molecule further came in with an inhibition diameters in the data set with Candida albicans [2] (50 μliter, 24 hours (*)) of 8 mm. Besides, in data set [3], the “d % (clotting activity)” value was found to be 11%, the coagulation time is 35 s and the clot entry is on record as “hard”. In addition, in data set [4] (incubation time 120 seconds), the clotting time is 19.5 s and the d% is recorded as 33%. Further, the “effect of reaction with arginine-rich surface proteins on cells” value in the data set with cell division was “cells that can not divide, and which become leaky and die”.
Consider `Nc1nc(=O)[nH]cc1F` [5FC, 5 fluorocytosine, reference compound], for which the inhibition diameters with Candida albicans [2] (5 μliter, 24 hours (*)) turned out to be 33 mm; with Candida albicans [2] (10 μliter, 24 hours (*)) it was 45 mm; in the data set with Candida albicans [2] (20 μliter, 24 hours (*)), 50 mm; in the data set on Candida albicans [2] (50 μliter, 24 hours (*)), 55 mm. The “duration of action against Candida” value in the data set with Candida albicans [5] is “shortlived action”. Moreover, the “toxicity to the host” value in the data set with Candida albicans [5] is on record as “low toxicity to the host”.
For the molecule `CC(=O)C=O` [MG, methylglyoxal], the half life result in data set [6] was “about 30 minutes”. The “P % (promotion)” value in the data set on Sarcoma-180 cells (MG alone, without radiation) turned out to be 4.7%. In addition, the TC % with Sarcoma-180 cells (MG alone, without radiation) is 104.7%; in the data set with Sarcoma-180 cells (RAD + MG, 120 mg/kg, 612 RAD, 3 times), 7.7%. Further, the “diameter of inhibition ring” value came out at 7 in the data set on Aspergillus niger (30 microliter), 9 with Aspergillus niger (40 microliter), 8 in the data set on Penicillum notatum [7] (30 microliter) and 10 in the data set on Penicillum notatum [7] (40 microliter). In addition, the inhibition diameters in the data set on Candida albicans [2] (20 μliter, 24 hours (*)) was 8 mm; in the data set on Candida albicans [2] (50 μliter, 24 hours (*)) it was 10 mm; in the data set on C. albicans, 6.0 mm. Besides, in data set [3], the “d % (clotting activity)” value is 20%. The same molecule yielded a coagulation time in data set [3] of 25 s. Also, the clot entry in data set [3] is “hard”. Moreover, the clotting time in data set [8] (incubation time 30 seconds) was found to be 39 s; in data set [8] (incubation time 60 seconds), 32 s; in data set [8] (incubation time 130 seconds), 39 s; in data set [8] (incubation time 190 seconds), 41 s; in data set [8] (incubation time 300 seconds), 91.8 s; in data set [4] (incubation time 5 seconds), 12.9 s. Besides, the clotting time in [4] (incubation time 60 seconds) was 14.9 s; in data set [4] (incubation time 129 seconds) it was 15.4 s; in data set [4] (incubation time 240 seconds), 19.0 s; in data set [4] (incubation time 360 seconds), 26.9 s; in data set [4] (incubation time 600 seconds), over 167.0 s; in data set [9] (incubation time 70), 16.5 s. The clotting time in data set [9] (incubation time 150) was 19.4 s; in [9] (incubation time 180), 20.0 s; in data set [9] (incubation time 240), 22.0 s; in data set [9] (incubation time 360), 24.0 s. Also, the d% in data set [8] (incubation time 30 seconds) is given as 15%; in [8] (incubation time 60 seconds), 13%; in [8] (incubation time 130 seconds) it was under 10%; in [4] (incubation time 5 seconds), 96%; in [4] (incubation time 60 seconds), 55%; in data set [4] (incubation time 129 seconds) it was 53%. The d% in data set [4] (incubation time 240 seconds) came to 35%; in [4] (incubation time 360 seconds), 26%.
In the case of `O=CC(=O)C(Cl)Cl` [DCMG, 3,3-dichloromethylglyoxal], the “diameter of inhibition ring” value in the data set on Aspergillus niger (10 microliter) is listed as 10; with Aspergillus niger (20 microliter), 12; in the data set with Aspergillus niger (30 microliter) it was 14; with Aspergillus niger (40 microliter), 15; in the data set with Penicillum notatum [7] (10 microliter) it was 8; in the data set on Penicillum notatum [7] (20 microliter), 10. Also, the “diameter of inhibition ring” value turned out to be 13 in the data set with Penicillum notatum [7] (30 microliter) and 16 with Penicillum notatum [7] (40 microliter). For the same molecule, the inhibition diameters worked out at 8 mm in the data set with Candida albicans [2] (10 μliter, 24 hours (*)); 20 mm in the data set with Candida albicans [2] (20 μliter, 24 hours (*)); 17 mm with Candida albicans [2] (20 μliter, 48 hours (**)); 32 mm in the data set with Candida albicans [2] (50 μliter, 24 hours (*)); 29 mm with Candida albicans [2] (50 μliter, 48 hours (**)); 23.0 mm in the data set with C. albicans. Further, in data set [3], the “d % (clotting activity)” value is given as “infinite”. The molecule also came in with a coagulation time in [3] of over 200 s. Besides, in [3], the clot result is on record as “no”. For the same molecule, the anti-coagulant effectiveness result in [3] (summary of Example 9) is given as “most effective anti-coagulants”. Besides, the clotting time in data set [4] (10x diluted, incubation time 10 seconds) is 12.9 s; in data set [4] (setting [11]) it was 20.0 s; in [4] (incubation time 15 seconds), over 170.0 s. Moreover, the d% in [4] (setting [11]) is 14.7%. In addition, the “persistence of inhibition rings” value in the data set with Penicillum notatum [10] (highest concentration) is reported as “remained unchanged”. Moreover, in the data set with Penicillum notatum [10] (penicillin plate), the “spore formation / mycelium development in second ring” value is “spore formation in this area was inhibited while mycelium development was not”.
